Where two headings read alike, the source gives them in different places.
Tests used:
S. mansoni adult worms [1] = assay: GSH/GSSG ratio in ex vivo adult worms; format: cell-based; details: for Decrease (%) in GSH/GSSG ratio: adult worms, 3 h exposure to compounds at 50 μM; for Reduction (%) in GSH/GSSG ratio: third data set
Description: We assessed GSH/GSSG levels experimentally by treating S. mansoni adult worms with 50 µM of compounds, or respective controls 5 µM Auranofin, 50 µM PZQ or 50 µM MZM and 0.01% DMSO for 3 h. Worm homogenate was prepared by washing three times with PBS to remove residual compounds and ten volumes of ice cold 5% sulfosalicylic acid was added. Worms were manually homogenized on ice using VWR Pellet Mixer Adaptor. The worm suspension was centrifuged at 14000 × g, 4 °C for 10 min and the acid supernatants transferred. An equal volume of ice-cold neutralization buffer (500 mM HEPES, pH 8.0) was added to the acid supernatants.
GSH/GSSG assay was performed by diluting the acid supernatant (5-fold) with ice-cold dilution buffer (250 mM HEPES, pH 7.5). Using white opaque luminescence plate on ice, 25 µl of the diluted worm acid supernatant was added each well in triplicates. Total glutathione lysis reagent and GSSG lysis reagent, which contains alkylating agent N-ethylmaleimide (25 mM) were prepared following manufactures protocol and added to respective wells along with blank for background. Total glutathione lysis reagent or oxidized glutathione lysis reagent (25 µl) was added to respective wells containing worm acid supernatants and the plate was shaken for 5 min. Luciferin generation reagent (LGR) (50 µl) was added to all wells, briefly shaken and incubated at room temperature for 30 min. Luciferin detection reagent (LDR) (100 µl) was added to all wells, briefly shaken and incubated for 15 min at room temperature and the luminescence measured using microplate imager (BioTek Cytation3). GSH/GSSH ratio for DMSO control and compounds were calculated using (Net DMSO total glutathione RFU) – (Net DMSO GSSG RFU)/ (Net DMSO GSSG RFU)/2 and (Net inhibitor total glutathione RFU) – (Net inhibitor GSSG RFU)/ (Net inhibitor GSSG RFU)/2 respectively.

S. mansoni adult worms [2] = assay: Schistosomicidal activity ex vivo, adult worms (Cell Titer Glo), alone or with channel blockers; format: cell-based; details: for LD50 ex vivo S. mansoni adult: 24 h exposure, compound alone
Description: Three-week old, female Swiss-Webster mice obtained from the Charles River were housed in the Comparative Research Center of Rush University Medical Center. Mice were infected by percutaneous tail exposure to about 200 S. mansoni or 50 S. japonicum cercaria for adult worms and about 1000 cercaria for juvenile S. mansoni worms through natural transdermal penetration of the cercariae for 1 h[81].
DMSO formulated compounds were diluted with phenol red free M199 medium or RPMI medium for NTS or juvenile and adult worms, respectively, at <1% DMSO final concentrations. NTS, juvenile and adult worms from overnight cultures were tested against compounds in triplicate. Controls were treated with DMSO alone or 5 µM AF as a positive control in appropriate medium. […] Schistosome viabilities in the presence of the compounds were assessed using this formula: % Viability = Averages of Test / Averages of DMSO Control x 100.

Human GR = target: T1, Human GR (Homo sapiens, UniProt P00390); assay: Human GR enzyme inhibition (GSSG reduction, NADPH oxidation); format: biochemical; details: for % inhibition / inhibition at 15 µM / inhibition at 30 µM: hGR; for inhibition at 15 µM / inhibition at 30 µM: read-out: % inhibition
T1 construct: made in house
T1 sequence (P00390 44-522): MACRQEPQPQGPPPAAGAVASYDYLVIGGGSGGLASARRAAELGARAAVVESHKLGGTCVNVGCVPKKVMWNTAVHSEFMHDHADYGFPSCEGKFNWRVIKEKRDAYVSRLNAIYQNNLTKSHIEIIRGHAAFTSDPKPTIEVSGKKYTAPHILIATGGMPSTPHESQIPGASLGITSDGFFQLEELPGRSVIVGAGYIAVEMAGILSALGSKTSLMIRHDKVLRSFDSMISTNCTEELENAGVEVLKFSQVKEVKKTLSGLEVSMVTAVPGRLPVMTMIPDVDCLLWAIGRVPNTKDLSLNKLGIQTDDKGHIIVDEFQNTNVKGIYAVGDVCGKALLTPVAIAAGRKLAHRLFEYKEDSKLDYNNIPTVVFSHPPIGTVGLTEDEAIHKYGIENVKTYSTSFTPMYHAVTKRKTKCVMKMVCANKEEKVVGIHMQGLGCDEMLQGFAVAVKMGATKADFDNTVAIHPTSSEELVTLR
Description: Recombinant TGR, human TrxR1, B. malayi (Bm)TrxR and human GR proteins were expressed and purified as described[20],[69],[79]. The codon optimized sequence for P. falciparum (PfTrxR, https://www.ncbi.nlm.nih.gov/protein/CAA60574.1/) with an N-terminal 6-His tag was synthesized and inserted into pET15b (GenScript) and expressed in BL21 (DE3) cells and purified as described for human GR[20]. TGR and TrxR enzyme inhibition assays were performed in triplicate at 25 °C as described[20] in 0.1 M potassium phosphate (pH 7.4), 10 mM EDTA, 100 µM NADPH and 0.01% Tween-20. TGR, human TrxR1 and BmTrxR (all at 4 nM) and PfTrxR (50 nM) were preincubated with the compounds for 15 min. The reaction was started with addition of an equal volume of DTNB (6 mM) and NADPH (100 µM) and the increase in A412 during the first 3 min was recorded. […] […] Activity was initiated with the addition of 1 mM GSSG and 100 μM NADPH and initial rates of NADPH oxidation were monitored at 340 nm. The reactions were done in triplicate. The IC50 was calculated in GraphPad Prism.

[3] = 15 minutes pre-incubation, compound 15 µM
[4] = 15 minutes pre-incubation, compound 30 µM
[5] = 15 minutes pre-incubation, compound 66.7 µM
[6] = 6 hours pre-incubation, compound 15 µM
[7] = 6 hours pre-incubation, compound 30 µM
[8] = 6 hours pre-incubation, compound 66.7 µM

`CC(=O)OC[C@H]1O[C@@H]([S-])[C@H](OC(C)=O)[C@@H](OC(C)=O)[C@@H]1OC(C)=O.CCP(CC)CC.[Au+]` [AF, auranofin, reference compound] was tested, and the “Ratio GSH/GSSG” value (S. mansoni adult worms [1]; 1 hr, first data set (r117-133), baseline 55.82) was 8.34, the “% Ratio GSH/GSSG” value (S. mansoni adult worms [1]; 1 hr, first data set (r117-133), baseline = 100) was 14.9481% and the “Ratio GSH/GSSG” value (S. mansoni adult worms [1]; 3 hr, first data set (r117-133), baseline 55.82) was 4.85. The “% Ratio GSH/GSSG” value (S. mansoni adult worms [1]; 3 hr, first data set (r117-133), baseline = 100) was 8.693%, the “Decrease (%) in GSH/GSSG ratio” value (S. mansoni adult worms [1]) was 91% and the “LD50 ex vivo S. mansoni adult” value (S. mansoni adult worms [2]) was 1.1 ± 0.04 µM. The “% viability” value (S. mansoni adult worms [2]; S. mansoni adult worms, Conc. 0.5 µM) was 85.422%, the “% viability” value (S. mansoni adult worms [2]; S. mansoni adult worms, Conc. 1 µM) was 43.1217% and the “% viability” value (S. mansoni adult worms [2]; S. mansoni adult worms, Conc. 2 µM) was 23.1816%. The “% viability” value (S. mansoni adult worms [2]; S. mansoni adult worms, Conc. 5 µM) was 3.259%.
`Cc1oc(-c2ccccc2)nc1CN[C@@H]1C[C@@H]2C[C@H]([C@H]1C)C2(C)C` [C3] was tested, and the “% inhibition” value (Human GR; [3]) was -2.234%, the “% inhibition” value (Human GR; [4]) was -5.497% and the “% inhibition” value (Human GR; [5]) was -7.805%. For the same molecule, the “% inhibition” value (Human GR; [6]) was -0.8033%, the “% inhibition” value (Human GR; [7]) was -0.8345% and the “% inhibition” value (Human GR; [8]) was -0.3955%.
`Cc1oc(-c2ccc3ccccc3c2)nc1CNC1CCCCCC1` [C5] was tested, and the “% inhibition” value (Human GR; [3]) was -0.1784%, the “% inhibition” value (Human GR; [4]) was -0.6429% and the “% inhibition” value (Human GR; [5]) was -2.462%. For the same molecule, the “% inhibition” value (Human GR; [6]) was -0.4334%, the “% inhibition” value (Human GR; [7]) was -1.271% and the “% inhibition” value (Human GR; [8]) was -0.3907%.
`C[C@@H]1[C@H]2C[C@@H](C[C@H]1NCc1nc3ccccc3n1C)C2(C)C` [C12] gave a hGR % inhibition (Human GR; 15 minutes pre-incubation, 15 µM) of -0.9179%, a hGR % inhibition (Human GR; 15 minutes pre-incubation, 30 µM) of -2.193% and a hGR % inhibition (Human GR; 15 minutes pre-incubation, 66.7 µM) of -0.3071%. It also gave a hGR % inhibition (Human GR; 6 hours pre-incubation, 15 µM) of -3.5243%, a hGR % inhibition (Human GR; 6 hours pre-incubation, 30 µM) of -2.022% and a hGR % inhibition (Human GR; 6 hours pre-incubation, 66.7 µM) of -0.874%.
In the case of `Cc1oc(-c2ccc3c(c2)OCO3)nc1CN[C@@H]1C[C@@H]2C[C@H]([C@H]1C)C2(C)C` [Compound 1], the “Human GR (inhibition at 66.7 µM)” value (Human GR; 66.7 µM) is reported as “n.i”, the inhibition at 15 µM (Human GR; [3]) is reported as -1.22% and the inhibition at 30 µM (Human GR; [4]) is reported as -0.832%. The inhibition at 15 µM (Human GR; [6]) was -0.519%, the inhibition at 30 µM (Human GR; [7]) was -1.06% and the “Reduction (%) in GSH/GSSG ratio” value (S. mansoni adult worms [1]; 1 hr) was 50.9919%. For the same molecule, the “Ratio GSH/GSSG” value (S. mansoni adult worms [1]; 1 hr, third data set (r147-159), 0hr 72.45) was 35.51, the “% Ratio GSH/GSSG” value (S. mansoni adult worms [1]; 1 hr, third data set (r147-159), 0hr = 100) was 49.0081% and the “Reduction (%) in GSH/GSSG ratio” value (S. mansoni adult worms [1]; 1 hr, (values given as fraction)) was 0.5099%. For the same molecule, the “Reduction (%) in GSH/GSSG ratio” value (S. mansoni adult worms [1]; 3 hr) was 78.3034%, the “Ratio GSH/GSSG” value (S. mansoni adult worms [1]; 3 hr, third data set (r147-159), 0hr 72.45) was 15.72 and the “% Ratio GSH/GSSG” value (S. mansoni adult worms [1]; 3 hr, third data set (r147-159), 0hr = 100) was 21.6966%. For the same molecule, the “Reduction (%) in GSH/GSSG ratio” value (S. mansoni adult worms [1]; 3 hr, (values given as fraction)) was 0.78%, the “Decrease (%) in GSH/GSSG ratio” value (S. mansoni adult worms [1]) was 75% and the “LD50 ex vivo S. mansoni adult” value (S. mansoni adult worms [2]) was 12.3 ± 1.30 µM. For the same molecule, the viability at 5 µM (S. mansoni adult worms [2]; Schistosoma mansoni, S. mansoni adult worms, Conc. 5 µM, read-out: % viability) was 77.3%, the viability at 10 µM (S. mansoni adult worms [2]; Schistosoma mansoni, S. mansoni adult worms, Conc. 10 µM, read-out: % viability) was 58.4% and the viability at 25 µM (S. mansoni adult worms [2]; Schistosoma mansoni, S. mansoni adult worms, Conc. 25 µM, read-out: % viability) was 0.888%. It also gave a viability at 35 µM (S. mansoni adult worms [2]; Schistosoma mansoni, S. mansoni adult worms, Conc. 35 µM) of 0.238%.

Source: article PMC10287695, “Non-covalent inhibitors of thioredoxin glutathione reductase with schistosomicidal activity in vivo” (Nature Communications, 2023)
